The NIST ThermoML archive (doi:10.1016/j.jct.2017.08.004)

Experiments:
[1] = for molar entropy: 101.33 kPa; for Normal melting temperature: DTA
[2] = Molar enthalpy of transition or fusion; details: Crystal; DSC

OC[C@@H](O)[C@@H](O)[C@H](O)[C@H](O)CO [D-mannitol]
[1]
Details	molar entropy [J/K/mol]
1 K, Crystal, relaxation calorimetry	0.000631
2 K, Crystal, relaxation calorimetry	0.002978
3 K, Crystal, relaxation calorimetry	0.008828
4 K, Crystal, relaxation calorimetry	0.02011
5 K, Crystal, relaxation calorimetry	0.03893
6 K, Crystal, relaxation calorimetry	0.06761
7 K, Crystal, relaxation calorimetry	0.1087
8 K, Crystal, relaxation calorimetry	0.165
9 K, Crystal, relaxation calorimetry	0.2395
10 K, Crystal, relaxation calorimetry	0.3351
15 K, Crystal, relaxation calorimetry	1.202
20 K, Crystal, relaxation calorimetry	2.796
25 K, Crystal, relaxation calorimetry	5.087
30 K, Crystal, relaxation calorimetry	7.955
35 K, Crystal, relaxation calorimetry	11.26
40 K, Crystal, relaxation calorimetry	14.89
45 K, Crystal, relaxation calorimetry	18.76
50 K, Crystal, relaxation calorimetry	22.8
55 K, Crystal, relaxation calorimetry	26.97
60 K, Crystal, relaxation calorimetry	31.23
65 K, Crystal, relaxation calorimetry	35.57
70 K, Crystal, relaxation calorimetry	39.94
75 K, Crystal, relaxation calorimetry	44.34
80 K, Crystal, relaxation calorimetry	48.76
85 K, Crystal, relaxation calorimetry	53.19
90 K, Crystal, relaxation calorimetry	57.61
95 K, Crystal, relaxation calorimetry	62.02
100 K, Crystal, relaxation calorimetry	66.42
110 K, Crystal, relaxation calorimetry	75.17
120 K, Crystal, relaxation calorimetry	83.84
130 K, Crystal, relaxation calorimetry	92.42
140 K, Crystal, relaxation calorimetry	100.91
150 K, Crystal, relaxation calorimetry	109.31
160 K, Crystal, relaxation calorimetry	117.62
170 K, Crystal, relaxation calorimetry	125.86
180 K, Crystal, relaxation calorimetry	134.02
190 K, Crystal, relaxation calorimetry	142.11
200 K, Crystal, relaxation calorimetry	150.14
210 K, Crystal, relaxation calorimetry	158.13
220 K, Crystal, relaxation calorimetry	166.06
230 K, Crystal, relaxation calorimetry	173.95
240 K, Crystal, relaxation calorimetry	181.8
250 K, Crystal, relaxation calorimetry	189.63
260 K, Crystal, relaxation calorimetry	197.43
270 K, Crystal, relaxation calorimetry	205.2
273.15 K, Crystal, relaxation calorimetry	207.65
280 K, Crystal, relaxation calorimetry	212.96
290 K, Crystal, relaxation calorimetry	220.71
298.15 K, Crystal, relaxation calorimetry	227.01
300 K, Crystal, relaxation calorimetry	228.44
305 K, Crystal, Small sample (50 mg) DSC	232.31
310 K, Crystal, Small sample (50 mg) DSC	236.19
315 K, Crystal, Small sample (50 mg) DSC	240.08
320 K, Crystal, Small sample (50 mg) DSC	243.99
325 K, Crystal, Small sample (50 mg) DSC	247.9
330 K, Crystal, Small sample (50 mg) DSC	251.82
335 K, Crystal, Small sample (50 mg) DSC	255.74
340 K, Crystal, Small sample (50 mg) DSC	259.67
345 K, Crystal, Small sample (50 mg) DSC	263.61
350 K, Crystal, Small sample (50 mg) DSC	267.55
355 K, Crystal, Small sample (50 mg) DSC	271.49
360 K, Crystal, Small sample (50 mg) DSC	275.43
365 K, Crystal, Small sample (50 mg) DSC	279.37
370 K, Crystal, Small sample (50 mg) DSC	283.31
375 K, Crystal, Small sample (50 mg) DSC	287.25
380 K, Crystal, Small sample (50 mg) DSC	291.19
385 K, Crystal, Small sample (50 mg) DSC	295.12
390 K, Crystal, Small sample (50 mg) DSC	299.04
395 K, Crystal, Small sample (50 mg) DSC	302.96
400 K, Crystal, Small sample (50 mg) DSC	306.87
405 K, Crystal, Small sample (50 mg) DSC	310.78
410 K, Crystal, Small sample (50 mg) DSC	314.68
415 K, Crystal, Small sample (50 mg) DSC	318.58
420 K, Crystal, Small sample (50 mg) DSC	322.47
425 K, Crystal, Small sample (50 mg) DSC	326.38
430 K, Crystal, Small sample (50 mg) DSC	330.31
435 K, Crystal, Small sample (50 mg) DSC	334.63
450 K, Liquid, Small sample (50 mg) DSC	463.49
455 K, Liquid, Small sample (50 mg) DSC	469.61
460 K, Liquid, Small sample (50 mg) DSC	475.21
465 K, Liquid, Small sample (50 mg) DSC	480.73
470 K, Liquid, Small sample (50 mg) DSC	486.2
475 K, Liquid, Small sample (50 mg) DSC	491.61
480 K, Liquid, Small sample (50 mg) DSC	496.96
485 K, Liquid, Small sample (50 mg) DSC	502.25
490 K, Liquid, Small sample (50 mg) DSC	507.49

Details	Normal melting temperature [°C]
[1], Crystal	167.47

Details	Molar enthalpy of transition or fusion [kcal/mol]
[2]	13.3

OC[C@H](O)C(O)[C@@H](O)CO [L-(-)-arabitol]
[1]
Details	molar entropy [J/K/mol]
1 K, Crystal, relaxation calorimetry	0.0005209
2 K, Crystal, relaxation calorimetry	0.002213
3 K, Crystal, relaxation calorimetry	0.006332
4 K, Crystal, relaxation calorimetry	0.0143
5 K, Crystal, relaxation calorimetry	0.0278
6 K, Crystal, relaxation calorimetry	0.04885
7 K, Crystal, relaxation calorimetry	0.07993
8 K, Crystal, relaxation calorimetry	0.1243
9 K, Crystal, relaxation calorimetry	0.1854
10 K, Crystal, relaxation calorimetry	0.2663
15 K, Crystal, relaxation calorimetry	1.038
20 K, Crystal, relaxation calorimetry	2.479
25 K, Crystal, relaxation calorimetry	4.532
30 K, Crystal, relaxation calorimetry	7.074
35 K, Crystal, relaxation calorimetry	9.99
40 K, Crystal, relaxation calorimetry	13.19
45 K, Crystal, relaxation calorimetry	16.61
50 K, Crystal, relaxation calorimetry	20.19
55 K, Crystal, relaxation calorimetry	23.88
60 K, Crystal, relaxation calorimetry	27.65
65 K, Crystal, relaxation calorimetry	31.48
70 K, Crystal, relaxation calorimetry	35.36
75 K, Crystal, relaxation calorimetry	39.27
80 K, Crystal, relaxation calorimetry	43.19
85 K, Crystal, relaxation calorimetry	47.12
90 K, Crystal, relaxation calorimetry	51.04
95 K, Crystal, relaxation calorimetry	54.97
100 K, Crystal, relaxation calorimetry	58.89
110 K, Crystal, relaxation calorimetry	66.69
120 K, Crystal, relaxation calorimetry	74.44
130 K, Crystal, relaxation calorimetry	82.11
140 K, Crystal, relaxation calorimetry	89.7
150 K, Crystal, relaxation calorimetry	97.21
160 K, Crystal, relaxation calorimetry	104.63
170 K, Crystal, relaxation calorimetry	111.97
180 K, Crystal, relaxation calorimetry	119.24
190 K, Crystal, relaxation calorimetry	126.44
200 K, Crystal, relaxation calorimetry	133.58
210 K, Crystal, relaxation calorimetry	140.66
220 K, Crystal, relaxation calorimetry	147.69
230 K, Crystal, relaxation calorimetry	154.69
240 K, Crystal, relaxation calorimetry	161.65
250 K, Crystal, relaxation calorimetry	168.59
260 K, Crystal, relaxation calorimetry	175.51
270 K, Crystal, relaxation calorimetry	182.43
273.15 K, Crystal, relaxation calorimetry	184.6
280 K, Crystal, relaxation calorimetry	189.34
290 K, Crystal, relaxation calorimetry	196.25
298.15 K, Crystal, relaxation calorimetry	201.89
300 K, Crystal, relaxation calorimetry	203.17
305 K, Crystal, Small sample (50 mg) DSC	206.64
310 K, Crystal, Small sample (50 mg) DSC	210.13
315 K, Crystal, Small sample (50 mg) DSC	213.64
320 K, Crystal, Small sample (50 mg) DSC	217.18
325 K, Crystal, Small sample (50 mg) DSC	220.73
330 K, Crystal, Small sample (50 mg) DSC	224.32
335 K, Crystal, Small sample (50 mg) DSC	227.93
340 K, Crystal, Small sample (50 mg) DSC	231.6
345 K, Crystal, Small sample (50 mg) DSC	235.34
350 K, Crystal, Small sample (50 mg) DSC	239.2
355 K, Crystal, Small sample (50 mg) DSC	243.24
360 K, Crystal, Small sample (50 mg) DSC	247.71
380 K, Liquid, Small sample (50 mg) DSC	355.56
385 K, Liquid, Small sample (50 mg) DSC	361.46
390 K, Liquid, Small sample (50 mg) DSC	367.15
395 K, Liquid, Small sample (50 mg) DSC	372.77
400 K, Liquid, Small sample (50 mg) DSC	378.34
405 K, Liquid, Small sample (50 mg) DSC	383.87
410 K, Liquid, Small sample (50 mg) DSC	389.35
415 K, Liquid, Small sample (50 mg) DSC	394.8

Details	Normal melting temperature [°C]
[1], Crystal	96.70

Details	Molar enthalpy of transition or fusion [kcal/mol]
[2]	8.79
